Paper PMC3751846, “BET Inhibition Silences Expression of MYCN and BCL2 and Induces Cytotoxicity in Neuroblastoma Tumor Models” (PLoS ONE, 2013)
Like-named read-outs stand apart in the source and are kept apart here.

Key:
Test in all cases: cells
SK-N-BE(2) [1] = tested on: SK-N-BE(2); set-up: species or system neuroblastoma cell lines; 6 day growth-death assay, CellTiter-Fluor read-out, mid-point of growth window (DMSO to T0); settings: Homo sapiens, SKNBE2, 144 h; CellTiter-Fluor, 6 days; read-out: gIC50 CellTiter-Fluor
Experimental: (§1) Cell line growth-death assays were performed as described, with a few modifications. Briefly, cells were seeded into 384-well or 96-well plates at a density optimized for 6 days of growth. The following day, T0 measurements were taken using CellTiter-Glo (CTG; Promega, Madison, WI), CellTiter-Fluor (Promega), or CyQuant Direct (Life Technologies), following the manufacturer’s instructions. Plates were read on an Envision (PerkinElmer, Waltham, MA), Safire 2 (Tecan, Durham, NC), or SpectraMax Gemini EM (Molecular Devices, Sunnyvale, CA) plate reader. […] Cells were incubated for 6 days and developed as described above. Results were plotted as a percentage of the T0 value, normalized to 100%, versus concentration of compound. A 4-parameter equation was used to generate concentration response curves. Growth IC50 (gIC50) values were calculated at the mid-point of the growth window (between DMSO and T0 values). Ymin-T0 values were calculated by subtracting the T0 value (100%) from the Ymin value on the curve, and are a measure of net population cell growth or death.

CHP-212 [2] = tested on: CHP-212; set-up: species or system neuroblastoma cell lines; 6 day growth-death assay, CellTiter-Fluor read-out, mid-point of growth window (DMSO to T0); settings: Homo sapiens, CHP-212, 144 h; CellTiter-Fluor, 6 days; read-out: gIC50 CellTiter-Fluor
Experimental: as §1

SK-N-AS [3] = tested on: SK-N-AS; set-up: species or system neuroblastoma cell lines; 6 day growth-death assay, CellTiter-Fluor read-out, mid-point of growth window (DMSO to T0); settings: Homo sapiens, SK-N-AS, 144 h; CellTiter-Fluor, 6 days; read-out: gIC50 CellTiter-Fluor
Experimental: as §1

LA1-5s [4] = tested on: LA1-5s; set-up: species or system neuroblastoma cell lines; 6 day growth-death assay, CellTiter-Fluor read-out, mid-point of growth window (DMSO to T0); settings: Neuroblastoma cell, 144 h; CellTiter-Fluor, 6 days; read-out: gIC50 CellTiter-Fluor
Experimental: as §1

SK-N-BE(2) [5] = tested on: SK-N-BE(2); set-up: species or system neuroblastoma cell lines; 6 day growth-death assay, CyQuant Direct read-out, mid-point of growth window (DMSO to T0); settings: Homo sapiens, SKNBE2, 144 h; CyQuant, 6 days; read-out: gIC50 CyQuant
Experimental: as §1

CHP-212 [6] = tested on: CHP-212; set-up: species or system neuroblastoma cell lines; 6 day growth-death assay, CyQuant Direct read-out, mid-point of growth window (DMSO to T0); settings: Homo sapiens, CHP-212, 144 h; CyQuant, 6 days; read-out: gIC50 CyQuant
Experimental: as §1

SK-N-AS [7] = tested on: SK-N-AS; set-up: species or system neuroblastoma cell lines; 6 day growth-death assay, CyQuant Direct read-out, mid-point of growth window (DMSO to T0); settings: Homo sapiens, SK-N-AS, 144 h; CyQuant, 6 days; read-out: gIC50 CyQuant
Experimental: as §1

LA1-5s [8] = tested on: LA1-5s; set-up: species or system neuroblastoma cell lines; 6 day growth-death assay, CyQuant Direct read-out, mid-point of growth window (DMSO to T0); settings: Neuroblastoma cell, 144 h; CyQuant, 6 days; read-out: gIC50 CyQuant
Experimental: as §1

CC(=O)N1c2ccc(-c3ccc(C(=O)O)cc3)cc2[C@H](Nc2ccc(Cl)cc2)C[C@@H]1C [I-BET726] was tested, and the GI50 (SK-N-BE(2) [1]) was 20 nM, the GI50 (CHP-212 [2]) was 30 nM and the GI50 (SK-N-AS [3]) was 130 nM. The GI50 (LA1-5s [4]) was 25 nM, the GI50 (SK-N-BE(2) [5]) was 80 nM and the GI50 (CHP-212 [6]) was 10 nM. The GI50 (SK-N-AS [7]) was 135 nM and the GI50 (LA1-5s [8]) was 10 nM.
